Results: patent US6046217A, “2,3,5-trisubstituted pyridines as inhibitors of cyclooxygenase-2” (Merck Frosst Canada & Co., priority 1998, dated 2000)
Read-outs that look alike come from different tables or passages of the source.

Assays:
COX-1 [1] = molecular target: T1, COX-1 (Homo sapiens, UniProt P23219); test: Human whole blood assay, COX-1 (clotting-induced TxB2 production); type: cell-based; design: platelets in whole blood contain a large amount of the COX-1 enzyme; endogenous in cells; host or cells: platelets in fresh human whole blood, clotting; settings: human whole blood, clotting-induced TxB2, 1 h; read-out: COX-1 (IC50 mM) HWB
Text: (§1) As well, platelets in whole blood contain a large amount of the COX-1 enzyme. Immediately following blood clotting, platelets are activated through a thrombin-mediated mechanism. This reaction results in the production of thromboxane B2 (TxB2) via activation of COX-1. Thus, the effect of test compounds on TxB2 levels following blood clotting can be examined and used as an index for COX-1 activity. Therefore, the degree of selectivity by the test compound can be determined by measuring the levels of PGE2 after LPS induction (COX-2) and TxB2 following blood clotting (COX-1) in the same assay.
Fresh blood is collected into vacutainers containing no anticoagulants. […] The tubes are vortexed and incubated at 37° C. for 1 hour to allow blood to clot. At the end of incubation, serum is obtained by centrifugation (12,000×g for 5 min.). A 100 μL aliquot of serum is mixed with 400 μL of methanol for protein precipitation.

COX-1 [2] = molecular target: T1, COX-1; test: Assay of COX-1 activity from U937 cell microsomes (PGE2); type: biochemical; design: Assay of COX-1 Activity from U937 Cell Microsomes; endogenous in cells; host or cells: U937 cells, 100,000 x g microsomal pellet; settings: U-937 cell microsomes, 15 min preincubation; read-out: COX-1 (IC50 mM) U-937
Protocol: U 937 cells are pelleted by centrifugation at 500×g for 5 min and washed once with phosphate-buffered saline and repelleted. Cells are resuspended in homogenization buffer consisting of 0.1 M Tris-HCl, pH 7.4, 10 mM EDTA, […] leupeptin, 2 μg/ml soybean trypsin inhibitor, 2 μg/ml aprotinin and 1 mM phenyl methyl sulfonyl fluoride. The cell suspension is sonicated 4 times for 10 sec and is centrifuged at 10,000×g for 10 min at 4° C. The supernatant is centrifuged at 100,000×g for 1 hr at 4° C. The 100,000×g microsomal pellet is resuspended in 0.1 M Tris-HCl, pH 7.4, 10 mM EDTA to approximately 7 mg protein/ml and stored at -80° C.
Microsomal preparations are thawed immediately prior to use, subjected to a brief sonication, and then diluted to a protein concentration of 125 μg/ml in 0.1 M Tris-HCl buffer, pH 7.4 containing 10 mM EDTA, 0.5 mM phenol, 1 mM reduced glutathione and 1 μM hematin. Assays are performed in duplicate in a final volume of 250 μl. Initially, 5 μl of DMSO vehicle or drug in DMSO are added to 20 μl of 0.1 M Tris-HCl buffer, pH 7.4 containing 10 mM EDTA in wells of a 96-deepwell polypropylene titre plate. 200 μl of the microsomal preparation are then added and pre-incubated for 15 min at room temperature before addition of 25 μl of […] arachidonic acid in […] Tris-HCl and 10 mM EDTA, pH 7.4. Samples are incubated for 40 min at room temperature and the reaction is stopped by the addition of 25 μl of 1 N HCl. Samples are neutralized with 25 μl of 1 N NaOH prior to quantitation of PGE2 content by radioimmunoassay (Dupont-NEN or Amersham assay kits). Cyclooxygenase activity is defined as the difference between PGE2 levels in samples incubated in the presence of arachidonic acid and ethanol vehicle.
In the assay, inhibition is determined by measuring the amount of prostaglandin E2 (PGE2) synthesized in the presence of arachidonic acid, cyclooxygenase-1 or cyclooxygenase-2 and a putative inhibitor.

COX-2 [3] = molecular target: T2, COX-2 (Homo sapiens, UniProt P35354); test: cell-based
T2 sequence (P35354 18-604): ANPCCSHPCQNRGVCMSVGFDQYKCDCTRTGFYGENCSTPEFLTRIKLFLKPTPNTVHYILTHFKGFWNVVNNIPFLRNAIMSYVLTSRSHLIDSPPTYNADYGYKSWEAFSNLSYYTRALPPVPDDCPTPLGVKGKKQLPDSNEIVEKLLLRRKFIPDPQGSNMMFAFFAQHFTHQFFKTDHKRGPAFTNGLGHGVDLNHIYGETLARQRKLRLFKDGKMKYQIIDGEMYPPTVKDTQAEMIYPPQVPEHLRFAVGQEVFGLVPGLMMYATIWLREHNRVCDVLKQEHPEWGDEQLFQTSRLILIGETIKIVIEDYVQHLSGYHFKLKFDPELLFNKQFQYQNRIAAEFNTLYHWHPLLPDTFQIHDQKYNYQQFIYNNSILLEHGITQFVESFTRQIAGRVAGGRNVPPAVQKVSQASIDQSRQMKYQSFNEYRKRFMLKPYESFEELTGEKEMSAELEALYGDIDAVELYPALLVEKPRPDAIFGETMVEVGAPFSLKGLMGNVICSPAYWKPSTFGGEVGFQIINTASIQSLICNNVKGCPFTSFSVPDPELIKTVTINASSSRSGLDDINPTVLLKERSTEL
Protocol: For cyclooxygenase assays, CHO[hCOX-1] cells from suspension cultures and CHO[hCOX-2] cells prepared by trypsinization of adherent cultures are harvested by centrifugation (300×g, 10 min) and washed once in HBSS containing 15 mM HEPES, pH 7.4, and resuspended in HBSS, 15 mM HEPES, pH 7.4, at a cell concentration of 1.5×10^6 cells/ml. Drugs to be tested are dissolved in DMSO to 66.7-fold the highest test drug concentration. […] Cells (0.3×10^6 cells in 200 μl) are preincubated with 3 μl of the test drug or DMSO vehicle for 15 min at 37° C. Working solutions of peroxide-free AA (5.5 μM and 110 μM AA for the CHO [hCOX-1] and CHO [COX-2] assays, respectively) are prepared by a 10-fold dilution of a concentrated AA solution in ethanol into HBSS containing 15 mM HEPES, pH 7.4. Cells are then challenged in the presence or absence of drug with the AA/HBSS solution to yield a final concentration of 0.5 μM AA in the CHO[hCOX-1] assay and a final concentration of 10 μM AA in the CHO[hCOX-2] assay. The reaction is terminated by the addition of 10 μl 1 N HCl followed by neutralization with 20 μl of 0.5 N NaOH. The samples are centrifuged at 300 ×g at 4° C. for 10 min, and an aliquot of the clarified supernatant is appropriately diluted for the determination of PGE2 levels using an enzyme-linked immunoassay for PGE2 (Correlate PGE2 enzyme immunoassay kit, Assay Designs, Inc.). Cyclooxygenase activity in the absence of test compounds is determined as the difference in PGE2 levels of cells challenged with arachidonic acid versus the PGE2 levels in cells mock-challenged with ethanol vehicle. Inhibition of PGE2 synthesis by test compounds is calculated as a percentage of the activity in the presence of drug versus the activity in the positive control samples.

COX-2 [4] = molecular target: T2, COX-2; test: cell-based; settings: human whole blood, LPS-induced PGE2, 24 h
Text: as §1
Fresh blood is collected in heparinized tubes by venipuncture from both male and female volunteers. The subjects have no apparent inflammatory conditions and have not taken any NSAIDs for at least 7 days prior to blood collection. Plasma is immediately obtained from a 2mL blood aliquot to use as blank (basal levels of PGE2). The remaining blood is incubated with LPS (100 μg/ml final concentration, Sigma Chem, #L-2630 from E. coli; diluted in 0.1% BSA (Phosphate buffered saline) for 5 minutes at room temperature. Five hundred […] aliquots of blood are incubated with either 2 μL of vehicle (DMSO) or 2 μL of a test compound at final concentrations varying from 10 nM to 30 μM for 24 hours at 37° C. At the end of the incubation, the blood is centrifuged at 12,000×g for 5 minutes to obtain plasma. A 100 μL aliquot of plasma is mixed with 400 μL of methanol for protein precipitation. The supernatant is obtained and is assayed for PGE2 using a radioimmunoassay kit (Amersham, RPA#530) after conversion of PGE2 to its methyl oximate derivative according to the manufacturer's procedure. […]

[5] = CHO[hCOX-2] cells, 10 μM AA, 15 min preincubation, read-out: COX-2 (IC50 mM) CHO

T1 sequence (P23219 24-599): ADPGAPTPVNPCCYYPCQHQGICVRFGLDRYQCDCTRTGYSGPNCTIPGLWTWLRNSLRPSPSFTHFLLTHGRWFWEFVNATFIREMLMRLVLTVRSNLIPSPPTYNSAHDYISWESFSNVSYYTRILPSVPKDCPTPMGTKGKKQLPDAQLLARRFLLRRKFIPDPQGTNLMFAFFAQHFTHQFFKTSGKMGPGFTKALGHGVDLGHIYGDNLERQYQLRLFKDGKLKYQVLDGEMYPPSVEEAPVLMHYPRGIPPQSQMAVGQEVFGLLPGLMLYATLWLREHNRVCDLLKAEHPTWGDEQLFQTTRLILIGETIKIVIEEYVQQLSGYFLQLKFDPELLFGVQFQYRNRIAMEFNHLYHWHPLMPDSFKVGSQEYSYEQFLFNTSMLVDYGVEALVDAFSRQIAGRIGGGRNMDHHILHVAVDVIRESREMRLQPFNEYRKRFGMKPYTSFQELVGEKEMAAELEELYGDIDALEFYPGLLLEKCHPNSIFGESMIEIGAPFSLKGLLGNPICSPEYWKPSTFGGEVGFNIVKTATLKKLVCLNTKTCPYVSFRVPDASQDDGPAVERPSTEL

Molecule `C[C@]1(O)CCC[C@H]1Oc1ncc(C(F)(F)F)cc1-c1ccc(S(C)(=O)=O)cc1` (single isomer, unassigned) [Example 31, (+)-2-(cis-2-Hydroxy-2-methylcyclopentyloxy)-3-(4-methylsulfonyl)phenyl-5-trifluoromethylpyridine] has an IC50 (COX-1 [1]) greater than 0.1 mM and an IC50 (COX-1 [2]) of 0.037 mM.
`C[C@]1(O)CCC[C@H]1Oc1ncc(C(F)(F)F)cc1-c1ccc(S(C)(=O)=O)cc1` (single isomer, unassigned) [Example 32, (-)-2-(cis-2-Hydroxy-2-methylcyclopentyloxy)-3-(4-methylsulfonyl)phenyl-5-trifluoromethylpyridine] gave an IC50 (COX-1 [1]) greater than 0.1 mM and an IC50 (COX-1 [2]) greater than 0.01 mM.
`CS(=O)(=O)c1ccc(-c2cc(C(F)(F)F)cnc2OCC2(O)CCCC2)cc1` [Example 13, 2-(1-Hydroxycyclopentyl)methoxy-3-(4-methylsulfonyl)phenyl-5-trifluoromethylpyridine] showed an IC50 (COX-1 [1]) of 0.096 mM and an IC50 (COX-1 [2]) of 0.01 mM.
Work on `C[C@@H](Oc1ncc(C(F)(F)F)cc1-c1ccc(S(C)(=O)=O)cc1)C(C)(C)O` [Example 17, 2-((2R)-3-Hydroxy-3-methyl-2-butyloxy)-3-(4-methylsulfonyl)phenyl-5-trifluoromethylpyridine] yielded an IC50 (COX-2 [3]; [5]) of 380 nM, an IC50 (COX-2 [4]; read-out: COX-2 (IC50 mM) HWB) of less than 0.0004 mM and an IC50 (COX-1 [1]) greater than 0.1 mM. It also gave an IC50 (COX-1 [2]) greater than 0.01 mM.
With `CCC(Oc1ncc(C(F)(F)F)cc1-c1ccc(S(C)(=O)=O)cc1)C(C)(C)O` (stereo not drawn) [Example 19, 2-(4-Hydroxy-4-methyl-3-pentyloxy)-3-(4-methylsulfonyl)phenyl-5-trifluoromethylpyridine] the IC50 (COX-2 [3]; [5]) was 320 nM, the IC50 (COX-2 [4]; read-out: COX-2 (IC50 mM) HWB) was 0.0005 mM and the IC50 (COX-1 [2]) was greater than 0.01 mM.
In the case of `CCC(O)(CC)[C@H](C)Oc1ncc(C(F)(F)F)cc1-c1ccc(S(C)(=O)=O)cc1` [Example 20, 2-((2S)-3-Ethyl-3-hydroxy-2-pentyloxy)-3-(4-methylsulfonyl)phenyl-5-trifluoromethylpyridine], the IC50 (COX-2 [3]; [5]) is reported as 400 nM, the IC50 (COX-2 [4]; read-out: COX-2 (IC50 mM) HWB) is reported as 0.0016 mM and the IC50 (COX-1 [2]) is reported as greater than 0.01 mM.
With `C[C@@H](O)[C@@H](C)Oc1ncc(Cl)cc1-c1ccc(S(C)(=O)=O)cc1` [Example 24, 5-Chloro-2-((2R,3R)-3-hydroxy-2-butyloxy)-3-(4-methylsulfonyl)phenylpyridine] the IC50 (COX-2 [3]; [5]) was 70 nM, the IC50 (COX-2 [4]; read-out: COX-2 (IC50 mM) HWB) was 0.0015 mM and the IC50 (COX-1 [2]) was greater than 0.01 mM.
In the case of `C[C@H](O)[C@@H](C)Oc1ncc(C(F)(F)F)cc1-c1ccc(S(C)(=O)=O)cc1` [Example 25, 2-((2R,3S)-3-Hydroxy-2-butyloxy)-3-(4-methylsulfonyl)phenyl-5-trifluoromethylpyridine], the IC50 (COX-2 [3]; [5]) is reported as 60 nM, the IC50 (COX-2 [4]; read-out: COX-2 (IC50 mM) HWB) is reported as 0.0036 mM and the IC50 (COX-1 [2]) is reported as greater than 0.01 mM.
With `C[C@H](O)CCOc1ncc(C(F)(F)F)cc1-c1ccc(S(C)(=O)=O)cc1` [Example 38, 2-((3S)-3-Hydroxy-1-butyloxy)-3-(4-methylsulfonyl)phenyl-5-trifluoromethylpyridine] the IC50 (COX-2 [3]; [5]) was 260 nM, the IC50 (COX-2 [4]; read-out: COX-2 (IC50 mM) HWB) was 0.0059 mM and the IC50 (COX-1 [2]) was 0.003 to 0.01 mM.
Work on `C[C@@H](O)CCOc1ncc(C(F)(F)F)cc1-c1ccc(S(C)(=O)=O)cc1` [Example 39, 2-((3R)-3-Hydroxy-1-butyloxy)-3-(4-methylsulfonyl)phenyl-5-trifluoromethylpyridine] yielded an IC50 (COX-2 [3]; [5]) of 200 nM, an IC50 (COX-2 [4]; read-out: COX-2 (IC50 mM) HWB) of 0.0134 mM and an IC50 (COX-1 [2]) greater than 0.01 mM.
In the case of `CC(C)(O)CCOc1ncc(C(F)(F)F)cc1-c1ccc(S(C)(=O)=O)cc1` [Example 40, 2-(3-Hydroxy-3-methyl-1-butyloxy)-3-(4-methylsulfonyl)phenyl-5-trifluoromethylpyridine], the IC50 (COX-2 [3]; [5]) is reported as 200 nM, the IC50 (COX-2 [4]; read-out: COX-2 (IC50 mM) HWB) is reported as 0.0039 mM and the IC50 (COX-1 [2]) is reported as 0.01 mM.
For `C[C@H](CCO)Oc1ncc(C(F)(F)F)cc1-c1ccc(S(C)(=O)=O)cc1` [Example 41, 2-((2R)-4-Hydroxy-2-butyloxy)-3-(4-methylsulfonyl)phenyl-5-trifluoromethylpyridine], the IC50 (COX-2 [3]; [5]) was 40 nM, the IC50 (COX-2 [4]; read-out: COX-2 (IC50 mM) HWB) was 0.0004 mM and the IC50 (COX-1 [2]) was greater than 0.01 mM.
For `CC(C)(O)CSc1ncc(C(F)(F)F)cc1-c1ccc(S(C)(=O)=O)cc1` [Example 43, 2-(2-Hydroxy-2-methyl-1-thiopropyloxy)-3-(4-methylsulfonyl)phenyl-5-trifluoromethylpyridine], the IC50 (COX-1 [1]) was 0.039 mM and the IC50 (COX-1 [2]) was 0.003 to 0.01 mM.
`CC(C)(O)CSc1ncc(Cl)cc1-c1ccc(S(C)(=O)=O)cc1` [Example 44, 5-Chloro-2-(2-Hydroxy-2-methyl-1-thiopropyloxy)-3-(4-methylsulfonyl)phenylpyridine] was tested, and the IC50 (COX-2 [3]; [5]) was 40 nM, the IC50 (COX-2 [4]; read-out: COX-2 (IC50 mM) HWB) was 0.0015 mM and the IC50 (COX-1 [2]) was greater than 0.01 mM.
`CCC(O)(CC)CSc1ncc(C(F)(F)F)cc1-c1ccc(S(C)(=O)=O)cc1` [Example 47, 2-(2-Ethyl-2-hydroxy-1-thiobutyloxy)-3-(4-methylsulfonyl)phenyl-5-trifluoromethylpyridine] showed an IC50 (COX-2 [3]; [5]) of 20 nM, an IC50 (COX-2 [4]; read-out: COX-2 (IC50 mM) HWB) of 0.0006 mM and an IC50 (COX-1 [2]) of 0.003 to 0.01 mM.
With `CCC(O)(CC)CSc1ncc(Cl)cc1-c1ccc(S(C)(=O)=O)cc1` [Example 48, 5-Chloro-2-(2-ethyl-2-hydroxy-1-thiobutyloxy)-3-(4-methylsulfonyl)phenylpyridine] the IC50 (COX-2 [3]; [5]) was 70 nM, the IC50 (COX-2 [4]; read-out: COX-2 (IC50 mM) HWB) was 0.0011 mM and the IC50 (COX-1 [2]) was 0.001 to 0.003 mM.
`CS(=O)(=O)c1ccc(-c2cc(C(F)(F)F)cnc2SCC2(O)CCCC2)cc1` [Example 49, 2-(1-Hydroxycyclopentyl)thiomethoxy-3-(4-methylsulfonyl)phenyl-5-trifluoromethylpyridine] was tested, and the IC50 (COX-2 [3]; [5]) was 160 nM, the IC50 (COX-2 [4]; read-out: COX-2 (IC50 mM) HWB) was 0.0012 mM and the IC50 (COX-1 [2]) was 0.0003 mM.
`CC(CO)Sc1ncc(C(F)(F)F)cc1-c1ccc(S(C)(=O)=O)cc1` (stereo not drawn) [Example 50, 2-(3-Hydroxy-2-thiopropyloxy)-3-(4-methylsulfonyl)phenyl-5-trifluoromethylpyridine] was tested, and the IC50 (COX-2 [3]) was 50 nM, the IC50 (COX-2 [4]; COX-2 (IC50 mM) HWB) was 0.0005 mM and the IC50 (COX-1 [2]) was 0.001 to 0.003 mM.
